In brackets after ≈: the same amount, converted by molar mass. Like-named read-outs stand apart in the source and are kept apart here.
How the values were obtained:
Format in all cases: cell-based
[1] = system: A. flavus ATCC204304; assay: Antifungal activity test, MIC by broth microdilution (CLSI M38-A2)
Description: (§1) The Minimum Inhibitory Concentration (MIC) values of the present compound against yeast and filamentous fungi were determined by broth microdilution assay according to the Clinical Laboratory Standards Institute (CLSI) guidelines outlined in documents M27-A3 and M38-A2. The medium used in the assay consisted of RPMI1640 (with glutamine, without bicarbonate) with 2% glucose and 0.165 mol/L morpholinepropanesulfonic acid (MOPS) with pH adjusted to 7.0 using 1 mol/L sodium hydroxide. The present compound was dissolved in dimethyl sulfoxide (DMSO). A series of two-fold dilutions were prepared in DMSO, and then 2 μL of the diluted compound was added to each well in 96-well sterile plates. Each inoculum was prepared by diluting a suspension of Candida spp. or a conidia suspension of Aspergillus spp. suspended in sterile saline solution, and then 200 μL was added to each well to a predetermined concentration using RPMI/MOPS (final concentration for each solution: approximately 1×10^3 cells/mL and approximately 1×10^4 CFU/mL). Plates of Candida spp. and Aspergillus spp. were incubated at 35° C. for 24-48 hours. The MIC was defined as the lowest concentration giving 100% inhibition compared to the growth control.

[2] = system: A. fumigatus ATCC204305; assay: as above
Description: as §1

[3] = system: C. albicans ATCC90028; assay: Antifungal activity test, MIC by broth microdilution (CLSI M27-A3)
Description: as §1

[4] = A. flavus ATCC204304, broth microdilution, 35° C., 24-48 hours, 100% inhibition
[5] = A. fumigatus ATCC204305, broth microdilution, 35° C., 24-48 hours, 100% inhibition
[6] = C. albicans ATCC90028, broth microdilution, 35° C., 24-48 hours, 100% inhibition

SMILES | MIC [1, 4] | MIC [2, 5] | MIC [3, 6] | other results
C[C@@H]1[C@H](O)[C@@H](C)/C=C/C=C/C=C/C=C/C=C/C=C/C=C/[C@H](O[C@@H]2O[C@H](C)[C@@H](O)[C@H](N)[C@@H]2O)C[C@@H]2O[C@](O)(C[C@@H](O)C[C@@H](O)[C@H](O)CC[C@@H](O)C[C@@H](O)CC(=O)O[C@H]1C)C[C@H](O)[C@H]2NC(=O)NCC1(C(=O)O)CC1 [I-202] | 0.5 mg/L (≈ 0.483 µM) | 1 mg/L (≈ 0.965 µM) | 0.5 mg/L (≈ 0.483 µM) | 
C[C@@H]1[C@H](O)[C@@H](C)/C=C/C=C/C=C/C=C/C=C/C=C/C=C/[C@H](O[C@@H]2O[C@H](C)[C@@H](O)[C@H](N)[C@@H]2O)C[C@@H]2O[C@](O)(C[C@@H](O)C[C@@H](O)[C@H](O)CC[C@@H](O)C[C@@H](O)CC(=O)O[C@H]1C)C[C@H](O)[C@H]2NC(=O)NNC[C@H](O)CO [I-227] | 0.5 mg/L (≈ 0.487 µM) | 1 mg/L (≈ 0.974 µM) | 0.5 mg/L (≈ 0.487 µM) | 
C[C@@H]1[C@H](O)[C@@H](C)/C=C/C=C/C=C/C=C/C=C/C=C/C=C/[C@H](O[C@@H]2O[C@H](C)[C@@H](O)[C@H](N)[C@@H]2O)C[C@@H]2O[C@](O)(C[C@@H](O)C[C@@H](O)[C@H](O)CC[C@@H](O)C[C@@H](O)CC(=O)O[C@H]1C)C[C@H](O)[C@H]2NC(=O)N1C[C@H](O)CC1C(=O)O (stereo partly drawn) [I-230] | 0.5 mg/L (≈ 0.475 µM) | 1 mg/L (≈ 0.95 µM) | 0.5 mg/L (≈ 0.475 µM) | 
C[C@@H]1[C@H](O)[C@@H](C)/C=C/C=C/C=C/C=C/C=C/C=C/C=C/[C@H](O[C@@H]2O[C@H](C)[C@@H](O)[C@H](N)[C@@H]2O)C[C@@H]2O[C@](O)(C[C@@H](O)C[C@@H](O)[C@H](O)CC[C@@H](O)C[C@@H](O)CC(=O)O[C@H]1C)C[C@H](O)[C@H]2NC(=O)N1C[C@@H](O)[C@H](O)C1 [I-260] |  |  |  | MIC ([1]; Aspergillus flavus, A. flavus ATCC204304, broth microdilution, 35° C., 24-48 hours, 100% inhibition, read-out: MIC): 0.5 mg/L (≈ 0.488 µM); MIC ([2]; Aspergillus fumigatus, A. fumigatus ATCC204305, broth microdilution, 35° C., 24-48 hours, 100% inhibition, read-out: MIC): 1 mg/L (≈ 0.976 µM); MIC ([3]; Candida albicans, C. albicans ATCC90028, broth microdilution, 35° C., 24-48 hours, 100% inhibition, read-out: MIC): 0.5 mg/L (≈ 0.488 µM)
C[C@@H]1[C@H](O)[C@@H](C)/C=C/C=C/C=C/C=C/C=C/C=C/C=C/[C@H](O[C@@H]2O[C@H](C)[C@@H](O)[C@H](N)[C@@H]2O)C[C@@H]2O[C@](O)(C[C@@H](O)C[C@@H](O)[C@H](O)CC[C@@H](O)C[C@@H](O)CC(=O)O[C@H]1C)C[C@H](O)[C@H]2NC(=O)N(O)CC(N)=O [I-273] |  |  |  | MIC ([1]; Aspergillus flavus, ATCC204304): 0.5 mg/L (≈ 0.494 µM); MIC ([2]; Aspergillus fumigatus, ATCC204305): 0.5 mg/L (≈ 0.494 µM); MIC ([3]; Candida albicans, ATCC90028): 0.25 mg/L (≈ 0.247 µM)

Further lines, with some results ahead:

MIC [1, 4] | MIC [2, 5] | MIC [3, 6] | SMILES | other results
0.5 mg/L (≈ 0.516 µM) | 0.5 mg/L (≈ 0.516 µM) | 0.25 mg/L (≈ 0.258 µM) | C[C@@H]1[C@H](O)[C@@H](C)/C=C/C=C/C=C/C=C/C=C/C=C/C=C/[C@H](O[C@@H]2O[C@H](C)[C@@H](O)[C@H](N)[C@@H]2O)C[C@@H]2O[C@](O)(C[C@@H](O)C[C@@H](O)[C@H](O)CC[C@@H](O)C[C@@H](O)CC(=O)O[C@H]1C)C[C@H](O)[C@H]2NC(=O)N(C)O [I-266] | 
0.5 mg/L (≈ 0.501 µM) | 0.5 mg/L (≈ 0.501 µM) | 0.5 mg/L (≈ 0.501 µM) | C[C@@H]1[C@H](O)[C@@H](C)/C=C/C=C/C=C/C=C/C=C/C=C/C=C/[C@H](O[C@@H]2O[C@H](C)[C@@H](O)[C@H](N)[C@@H]2O)C[C@@H]2O[C@](O)(C[C@@H](O)C[C@@H](O)[C@H](O)CC[C@@H](O)C[C@@H](O)CC(=O)O[C@H]1C)C[C@H](O)[C@H]2NC(=O)N(O)CCO [I-274] | 
1 mg/L (≈ 0.973 µM) | 0.5 mg/L (≈ 0.486 µM) | 0.5 mg/L (≈ 0.486 µM) | C[C@@H]1[C@H](O)[C@@H](C)/C=C/C=C/C=C/C=C/C=C/C=C/C=C/[C@H](O[C@@H]2O[C@H](C)[C@@H](O)[C@H](N)[C@@H]2O)C[C@@H]2O[C@](O)(C[C@@H](O)C[C@@H](O)[C@H](O)CC[C@@H](O)C[C@@H](O)CC(=O)O[C@H]1C)C[C@H](O)[C@H]2NC(=O)N(O)C[C@H](O)CO [I-275] | 
0.5 mg/L (≈ 0.494 µM) | 0.5 mg/L (≈ 0.494 µM) | 0.5 mg/L (≈ 0.494 µM) | C[C@@H]1[C@H](O)[C@@H](C)/C=C/C=C/C=C/C=C/C=C/C=C/C=C/[C@H](O[C@@H]2O[C@H](C)[C@@H](O)[C@H](N)[C@@H]2O)C[C@@H]2O[C@](O)(C[C@@H](O)C[C@@H](O)[C@H](O)CC[C@@H](O)C[C@@H](O)CC(=O)O[C@H]1C)C[C@H](O)[C@H]2NC(=O)N(O)CC(=O)O [I-276] | 
